# Measurements from patent US8377895B2, “Cyclin-dependent protein kinases inhibitors of Scutellaria flavonoid organic amine derivatives, synthesis and use thereof” (priority 2008, dated 2013).
# Like-named read-outs stand apart in the source and are kept apart here.
# How the values were obtained:
# [1] = tested on: CD4+T lymphocytes; assay: Differentiate growth inhibition of CD4+T lymphocytes; assay type: cell-based; conditions: 48 h, induced by growth factor IL-3 and IL-5, read-out: differentiate growth inhibition rates of CD4+T lymphocytes
# From the text: These show a good prospect against AIDS, and are going to be prepared anti-AIDS drugs.
# [2] = tested on: MCF-7; assay: cells; conditions: Homo sapiens; for CC50: MCF7, read-out: MCF-7 LC50; for GI50: MCF7, read-out: MCT-7 GI50
# [3] = Druggability screening: solubility in PBS (pH7.4); assay type: physicochemical; conditions: pH 7.4, aqueous buffer
# [4] = in vivo
# [5] = biological target: Cdk1/Cyclin B (Homo sapiens, UniProt P06493); assay: Cdk1/Cyclin B inhibitory activity, Z'-LYTE Kinase Assay; assay type: biochemical; conditions: for IC50: ATP 10 μM, 8 concentrations of 0.01-25 μM
# [6] = in vivo
# [7] = tested on: Prostate (PC-3); assay: Anticancer activity in vitro (Table 3), PC-3; assay type: cell-based, human; conditions: 48 h; for GI50 / IC50 / LC50: Homo sapiens
# [8] = tested on: gastric (BGC-823); assay: Anticancer activity in vitro (Table 3), BGC-823; assay type: cell-based, human; conditions: for BGC-823 TGI: 48 h; for GI50 / IC50 / CC50: Homo sapiens, BGC-823, 48 h; for CC50: read-out: BGC-823 LC50
# [9] = tested on: 58 kinds human tumor cell; assay: NCI growth inhibition of 58 kinds human tumor cell; assay type: cell-based; conditions: 48 h, by NCI, read-out: growth inhibition rates in vitro 58 kinds human tumor cell
# [10] = tested on: Breast (MCF-7); assay: Anticancer activity in vitro (Table 3), MCF-7; assay type: cell-based, human; conditions: for MCF-7 TGI: 48 h; for GI50 / IC50 / CC50: Homo sapiens, MCF7, 48 h; for CC50: read-out: MCF-7 LC50
# [11] = Druggability screening: protein binding rate; assay type: in vitro ADME
# [12] = Druggability screening: blood drug concentration and half-life; conditions: equilibrium phase
# [13] = tested on: human cervical carcinoma HeLa cell line; assay: MTT cancer cell growth inhibition, HeLa; assay type: cell-based
# [14] = Distribution and plasma binding in rabbits (LC-DAD-MS); assay type: in vivo
# From the text: The major metabolic process relates to the structures is illustrated in the following scheme.
# [15] = tested on: human cervical carcinoma HeLa cell line; assay: Annexin V-PI double staining flow cytometry apoptosis, HeLa; assay type: cell-based; conditions: concentration equals to IC50, 48 hours
# [16] = tested on: human gastric cancer BGC823 cell lines; assay: MTT cancer cell growth inhibition, BGC823; assay type: cell-based
# [17] = tested on: human gastric cancer BGC823 cell lines; assay: Annexin V-PI double staining flow cytometry apoptosis, BGC823; assay type: cell-based; conditions: BGC823, concentration equals to IC50, 48 hours
# [18] = tested on: human breast cancer MCF-7; assay: Annexin V-PI double staining flow cytometry apoptosis, MCF-7; assay type: cell-based; conditions: MCF-7, concentration equals to IC50, 48 hours
# [19] = tested on: human breast cancer MCF-7; assay: MTT cancer cell growth inhibition, MCF-7; assay type: cell-based
# Cdk1/Cyclin B, sequence (P06493 whole entry): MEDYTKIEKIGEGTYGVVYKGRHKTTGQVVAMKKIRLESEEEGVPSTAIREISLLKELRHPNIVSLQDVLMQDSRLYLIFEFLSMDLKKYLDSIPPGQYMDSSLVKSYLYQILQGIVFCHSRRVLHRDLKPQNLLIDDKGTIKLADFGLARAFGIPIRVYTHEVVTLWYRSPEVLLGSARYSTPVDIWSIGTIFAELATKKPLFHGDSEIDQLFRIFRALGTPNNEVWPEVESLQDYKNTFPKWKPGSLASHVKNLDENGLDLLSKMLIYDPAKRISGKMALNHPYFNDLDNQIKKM
# Cdk1/Cyclin B, sequence (P14635 whole entry partner): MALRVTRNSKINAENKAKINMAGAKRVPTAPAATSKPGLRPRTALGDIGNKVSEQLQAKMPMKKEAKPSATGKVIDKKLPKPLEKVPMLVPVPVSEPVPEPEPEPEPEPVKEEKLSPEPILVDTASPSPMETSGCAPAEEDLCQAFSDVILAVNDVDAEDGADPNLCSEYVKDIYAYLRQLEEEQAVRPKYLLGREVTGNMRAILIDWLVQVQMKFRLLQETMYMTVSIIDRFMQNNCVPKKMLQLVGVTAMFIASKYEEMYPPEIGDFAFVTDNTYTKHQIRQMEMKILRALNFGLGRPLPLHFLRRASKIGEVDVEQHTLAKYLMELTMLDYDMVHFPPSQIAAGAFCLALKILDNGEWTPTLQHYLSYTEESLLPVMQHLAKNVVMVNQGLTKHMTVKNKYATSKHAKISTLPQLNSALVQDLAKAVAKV
smiles,measurement,setting,value
"COc1c(O)c(CN2CCN(CCO)CC2)c(O)c2c(=O)cc(-c3ccccc3)oc12 [Hydroxyethylpiperazine Wogonin, 6-((4-(2-hydroxyethyl)piperazin-1-yl)methyl)-5,7-dihydroxy-8-methoxy-2-phenyl-4H-chromen-4-one]",inhibition at 10 µM,[1],55%
same,CC50,[2],43.1 µM
same,GI50,[2],11.1 µM
same,solubility,[3],9390 µM
same,Blood drug concentration,[4],94.0 µM
same,IC50,[5],0.32 µM
same,half-life,[6],4 h
"COc1c(O)c(CN2CCSCC2)c(O)c2c(=O)cc(-c3ccccc3)oc12 [Sulfurmorpholine Wogonin, 5,7-dihydroxy-8-methoxy-2-phenyl-6-(thiomorpholinomethyl)-4H-chromen-4-one]",IC50,[5],3.17 µM
"COc1c(O)c(CN(C)C)c(O)c2c(=O)cc(-c3ccccc3)oc12 [Dimethylamine Wogonin, 6-((dimethylamino)methyl)-5,7-dihydroxy-8-methoxy-2-phenyl-4H-chromen-4-one]",IC50,[5],7.63 µM
"O=C(O)[C@H]1O[C@@H](Oc2cc3oc(-c4ccccc4)cc(=O)c3c(O)c2O)[C@H](O)[C@@H](O)[C@@H]1O [Baicalin, reference compound]",inhibition against Cdk1/Cyclin B (in words),[5],slight inhibition
same,IC50,[5],18.1 µM
"O=c1cc(-c2ccccc2)oc2c(CN3CCC(O)C3)c(O)c(O)c(O)c12 (centres unmarked) [Hydroxylpyrrolidine Baicalein, 5,6,7-trihydroxy-8-((3-hydroxypyrrolidin-1-yl)methyl)-2-phenyl-4H-chromen-4-one]",IC50,[5],0.29 µM
"COc1c(O)cc(O)c2c(=O)cc(-c3ccccc3)oc12 [Wogonin, reference compound]",IC50,[5],3.5 µM
"CN1CCC(c2c(O)cc(O)c3c(=O)cc(-c4ccccc4Cl)oc23)C1CO (centres unmarked) [Example P276-00, reference compound]",IC50,[5],0.79 µM
"COc1c(O)c(CN2CCOCC2)c(O)c2c(=O)cc(-c3ccccc3)oc12 [Morpholine Wogonin, 5,7-dihydroxy-8-methoxy-6-(morpholinomethyl)-2-phenyl-4H-chromen-4-one]",IC50,[5],> 25 µM
"O=c1cc(-c2ccccc2)oc2c(CN3CCN(CCO)CC3)c(O)c(O)c(O)c12 [Hydroxyethylpiperazine Baicalein, 5,6,7-trihydroxy-8-((4-(2-hydroxyethyl)piperazin-1-yl)methyl)-2-phenyl-4H-chromen-4-one]",CC50,[2],42.1 µM
same,GI50,[2],13.1 µM
same,solubility,[3],607 µM
same,PC-3 TGI,[7],15.4 µM
same,GI50,[7],6.2 µM
same,IC50,[7],11.6 µM
same,LC50,[7],36.6 µM
same,BGC-823 TGI,[8],15.4 µM
same,GI50,[8],6.1 µM
same,IC50,[8],19.3 µM
same,CC50,[8],51 µM
same,Blood drug concentration,[4],31.6 µM
same,inhibition at 10 µM,[9],46.2%
same,IC50,[5],0.28 µM
same,MCF-7 TGI,[10],15.4 µM
same,GI50,[10],6 µM
same,IC50,[10],20.4 µM
same,CC50,[10],32.6 µM
same,fraction unbound,[11],0.04
same,half-life,[6],3.75 h
O=c1cc(-c2ccccc2)oc2c(CN3CCSCC3)c(O)c(O)c(O)c12 [Sulfurmorpholine Baicalein],CC50,[2],84.3 µM
same,GI50,[2],14.2 µM
"O=c1cc(-c2ccccc2)oc2c(CN3CCC(O)CC3)c(O)c(O)c(O)c12 [Hydroxypiperidin Baicalein, 5,6,7-trihydroxy-8-((4-hydroxypiperidin-1-yl)methyl)-2-phenyl-4H-chromen-4-one]",inhibition at 10 µM,[1],46.2%
same,CC50,[2],40.1 µM
same,GI50,[2],10.2 µM
same,solubility,[3],377 µM
same,PC-3 TGI,[7],16.4 µM
same,GI50,[7],6 µM
same,IC50,[7],18.1 µM
same,LC50,[7],41 µM
same,BGC-823 TGI,[8],16.4 µM
same,GI50,[8],5.7 µM
same,IC50,[8],18.6 µM
same,CC50,[8],53.1 µM
same,Blood drug concentration,[4],28.7 µM
same,inhibition at 10 µM,[9],40.6%
same,IC50,[5],0.3 µM
same,MCF-7 TGI,[10],16.4 µM
same,GI50,[10],6 µM
same,IC50,[10],20.1 µM
same,CC50,[10],31 µM
same,fraction unbound,[11],0.09
same,half-life,[6],4.23 h
COc1c(O)c(CN2CCN(C)CC2)c2oc(-c3ccccc3)cc(=O)c2c1O [6-OCH3— Methylpiperazine Baicalein],CC50,[2],> 100 µM
same,GI50,[2],26.1 µM
same,PC-3 TGI,[7],76.1 µM
same,GI50,[7],11.2 µM
same,IC50,[7],87.6 µM
same,GI50,[8],26.2 µM
same,IC50,[8],115 µM
same,IC50,[5],0.88 µM
O=c1cc(-c2ccccc2)oc2c(CN3CCOCC3)c(O)c(O)c(O)c12 [Morpholine Baicalein],CC50,[2],48.9 µM
same,GI50,[2],10.1 µM
same,IC50,[5],0.3 µM
"O=c1cc(-c2ccccc2)oc2cc(O)c(O)c(O)c12 [Baicalein, reference compound]",Blood drug concentration,[12],0.026 µM
same,IC50,[5],2.08 µM
same,half-life,[6],5.26 h
"COc1c(O)c(CN2CCC(O)CC2)c(O)c2c(=O)cc(-c3ccccc3)oc12 [Hydroxypiperidine Wogonin, 5,7-dihydroxy-6-((4-hydroxypiperidin-1-yl)methyl)-8-methoxy-2-phenyl-4H-chromen-4-one]",IC50,[5],6.91 µM
"COc1c(O)c(CN2CCN(C)CC2)c(O)c2c(=O)cc(-c3ccccc3)oc12 [Methylpiperazine Wogonin, 6-((4-methylpiperazin-1-yl)methyl)-5,7-dihydroxy-8-methoxy-2-phenyl-4H-chromen-4-one]",IC50,[5],> 25 µM
O=c1cc(-c2ccccc2)oc2c(CN3CCNCC3)c(O)c(O)c(O)c12 [Piperazine Baicalein],CC50,[2],53.1 µM
same,GI50,[2],13.8 µM
same,solubility,[3],166 µM
same,IC50,[5],0.28 µM
"CN1CCN(Cc2c(O)c(O)c(O)c3c(=O)cc(-c4ccccc4)oc23)CC1 [Methylpiperazine Baicalein, 5,6,7-trihydroxy-8-((4-methylpiperazin-1-yl)methyl)-2-phenyl-4H-chromen-4-one]",CC50,[2],37.2 µM
same,GI50,[2],10.9 µM
same,solubility,[3],6.02 µM
same,PC-3 TGI,[7],19.8 µM
same,GI50,[7],8.2 µM
same,IC50,[7],21.1 µM
same,LC50,[7],38.8 µM
same,IC50,[13]; 24 h,12.8 ± 0.2 µM
same,IC50,[13]; 48 h,8.2 ± 0.15 µM
same,IC50,[13]; 72 h,6.7 ± 0.24 µM
same,tissue distribution,[14]; LC-DAD-MS,rapidly distributed to various tissues
same,fraction unbound,"[14]; rabbit, plasma, dose-independent manner, read-out: bound to plasma (converted)",0.02
same,early apoptosis,[15],67.3%
same,late apoptosis and cellular necrosis,[15],27.1%
same,BGC-823 TGI,[8],19.8 µM
same,GI50,[8],6.4 µM
same,IC50,[8],23.1 µM
same,CC50,[8],62.7 µM
same,IC50,"[16]; BGC-823, 24 h",9.6 ± 0.21 µM
same,IC50,"[16]; BGC-823, 48 h",7.2 ± 0.23 µM
same,IC50,"[16]; BGC-823, 72 h",6.5 ± 0.19 µM
same,early apoptosis,[17],69.2%
same,late apoptosis and cellular necrosis,[17],22.2%
same,inhibition at 10 µM,[9],50%
same,IC50,[5],0.29 µM
same,MCF-7 TGI,[10],16.4 µM
same,GI50,[10],6.4 µM
same,IC50,[10],19.3 µM
same,CC50,[10],31.3 µM
same,fraction unbound,[11],0.02
same,early apoptosis,[18],72.3%
same,late apoptosis and cellular necrosis,[18],23.1%
same,IC50,"[19]; MCF7, 24 h",13.7 ± 0.21 µM
same,IC50,"[19]; MCF7, 48 h",10.6 ± 0.17 µM
same,IC50,"[19]; MCF7, 72 h",7.4 ± 0.25 µM
"CN1CC[C@H](c2c(O)cc(O)c3c(=O)cc(-c4ccccc4Cl)oc23)[C@H](O)C1 [Flavopiridol, reference compound]",GI50,[2],0.048 µM
"COc1c(O)c(CN2CCNCC2)c(O)c2c(=O)cc(-c3ccccc3)oc12 [Piperazine Wogonin, 5,7-dihydroxy-8-methoxy-2-phenyl-6-(piperazin-1-ylmethyl)-4H-chromen-4-one]",IC50,[5],6.62 µM
O=c1cc(-c2ccccc2)oc2c(CN3CCCCC3)c(O)c(O)c(O)c12 [Piperidine Baicalein],CC50,[2],37.2 µM
same,GI50,[2],10.5 µM
"COc1c(O)c(CN2CCCCC2)c(O)c2c(=O)cc(-c3ccccc3)oc12 [Piperidine Wogonin, 5,7-dihydroxy-8-methoxy-2-phenyl-6-(piperidin-1-ylmethyl)-4H-chromen-4-one]",IC50,[5],10.5 µM
O=c1cc(-c2ccccc2)oc2c(CN3CCCC3)c(O)c(O)c(O)c12 [Pyrrolidine Baicalein],GI50,[2],10.3 µM
"COc1c(O)c(CN(CCO)CCO)c(O)c2c(=O)cc(-c3ccccc3)oc12 [Diethanolamin Wogonin, 6-((bis(2-hydroxyethyl)amino)methyl)-5,7-dihydroxy-8-methoxy-2-phenyl-4H-chromen-4-one]",IC50,[5],0.31 µM
CN(C)Cc1c(O)c(O)c(O)c2c(=O)cc(-c3ccccc3)oc12 [Dimethylamine Baicalein],GI50,[2],12.3 µM
"COc1c(O)c(CN2CCCC2)c(O)c2c(=O)cc(-c3ccccc3)oc12 [Pyrrolidine Wogonin, 5,7-dihydroxy-8-methoxy-2-phenyl-6-(pyrrolidin-1-ylmethyl)-4H-chromen-4-one]",IC50,[5],17.2 µM
